Assay results: PMC6019134, “1,2,6-Thiadiazinones as Novel Narrow Spectrum Calcium/Calmodulin-Dependent Protein Kinase Kinase 2 (CaMKK2) Inhibitors” (Molecules : A Journal of Synthetic Chemistry and Natural …, 2018)

Assays:
CDK2 = target: T1, CDK2 (Homo sapiens, UniProt P24941); test: DSF thermal shift, kinase panel; format: binding; conditions: 10 μM compound
T1 construct: purchased in-house (home-made panel, SGC-style construct names)
Experimental: (§1) The corresponding dianilino-TDZs (1–5) were tested on a panel of 46 protein kinases representing the major kinome branches at a concentration of 10 μM using a Differential Scanning Fluorimetry (DSF). Only analogues 1–3 induced a significant (>2 °C) thermal shift when incubated with a subset of the proteins (Table 1).
(§2) Kinase selectivity assay—A home-made kinase panel was generated for the following enzymes: AAK1, BMP2K, BMX, BRAF, CAMK1D, CAMK1G, CAMKK1, CAMKK2B, CDC42BPA, CDK2, CDKL1, CHEK2, CLK1, CSNK1G1, CSNK1G3, CSNK2A1, DYRK1A, DYRK2A, EPHA2, GAK, GSG2, MAPK1, MAP2K7, MAPK14B, MAPK3, PHKG2, PIM1, PLK1, PKMYT1, PRPF4B, RPS6KA1A, RPS6KA5A, RPS6KA6A, SLK, SRPK1, SRPK2, STK3, STK6, STK10, STK17A, STK24, STK38L, TRIB2, TTK, VRK1 and VRK2. Proteins were produced in E. coli, purified in a Ni-chelate column, followed by overnight digestion using TEV protease (made in house with an N-terminal 6xHis tag) and dialysis to remove imidazole. To clear samples of uncleaved proteins and the TEV protease, samples were loaded on new Ni-chelate columns. The flow through was collected, concentrated and loaded to a HiLoad Superdex 200 16/600 column (GE Healthcare, Chicago, IL, USA) for final polishing and buffer exchange.
(§3) Starting from 100 µM protein stocks, our kinase panel enzymes were diluted to 1 µM in buffer 100 mM K2HPO4 pH 7.5 containing 150 mM NaCl, 10% glycerol and 5X dye (Applied Biosystems catalogue 4461806). The protein/dye mixture was transferred to a 384-well PCR microplate having 20 µL per well. Compounds in DMSO at 10 mM concentration were added in 20 nL volume, using a liquid handling device setup with a pin head, to make 10 µM compound concentration in the assay plate.
(§4) Protein thermal shift data was measured in a qPCR instrument (Applied Biosystems QuantStudio 6) programmed to equilibrate the plate at 25 °C for 5 min followed by ramping the temperature to 95 °C at a rate of 0.05 °C/s. Data was processed using Protein Thermal shift software (Applied Biosystems) by fitting experimental curves to a Boltzmann function to calculate differential thermal shifts (dTm) referenced to protein/dye in 0.2% DMSO.

TRIB2A = target: T2, TRIB2A (Homo sapiens, UniProt Q92519); test: DSF thermal shift, kinase panel; format: binding; conditions: 10 μM compound
T2 construct: TEV-cleavable (cleaved yes); made in house; host or cells: E. coli
T2 sequence (Q92519 1-343): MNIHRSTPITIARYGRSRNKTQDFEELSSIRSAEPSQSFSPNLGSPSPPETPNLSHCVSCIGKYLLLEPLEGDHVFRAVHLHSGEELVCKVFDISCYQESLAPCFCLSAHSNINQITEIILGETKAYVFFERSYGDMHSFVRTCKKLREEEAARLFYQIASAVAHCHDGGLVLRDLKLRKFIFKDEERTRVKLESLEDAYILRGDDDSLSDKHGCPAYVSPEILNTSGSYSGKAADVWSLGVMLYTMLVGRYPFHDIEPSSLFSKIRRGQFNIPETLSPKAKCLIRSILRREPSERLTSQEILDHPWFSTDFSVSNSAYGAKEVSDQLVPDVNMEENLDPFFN
Experimental: as §1, §2, §3, §4

MAP2K7A = target: T3, MAP2K7A (Homo sapiens, UniProt O14733); test: DSF thermal shift, kinase panel; format: binding; conditions: 10 μM compound
T3 construct: purchased in-house (home-made panel, SGC-style construct names)
T3 sequence (O14733 1-419): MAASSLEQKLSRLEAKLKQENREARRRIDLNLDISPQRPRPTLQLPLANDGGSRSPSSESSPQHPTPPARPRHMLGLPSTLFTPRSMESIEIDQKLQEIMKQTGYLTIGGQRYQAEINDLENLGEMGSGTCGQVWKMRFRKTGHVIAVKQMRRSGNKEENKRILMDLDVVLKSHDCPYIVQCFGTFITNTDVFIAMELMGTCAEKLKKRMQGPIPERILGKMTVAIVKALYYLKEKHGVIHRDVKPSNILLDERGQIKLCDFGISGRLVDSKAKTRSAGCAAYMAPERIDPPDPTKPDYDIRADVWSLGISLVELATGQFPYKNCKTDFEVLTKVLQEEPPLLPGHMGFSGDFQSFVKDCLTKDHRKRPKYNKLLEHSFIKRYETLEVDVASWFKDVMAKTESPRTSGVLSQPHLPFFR
Experimental: as §1, §2, §3, §4

CAMKK2B = target: T4, CAMKK2B (Homo sapiens, UniProt Q96RR4); test: DSF thermal shift, kinase panel; format: binding; conditions: 10 μM compound
T4 construct: purchased in-house (home-made panel, SGC-style construct names)
Experimental: as §1, §2, §3, §4

T4 sequence (Q96RR4 161-449): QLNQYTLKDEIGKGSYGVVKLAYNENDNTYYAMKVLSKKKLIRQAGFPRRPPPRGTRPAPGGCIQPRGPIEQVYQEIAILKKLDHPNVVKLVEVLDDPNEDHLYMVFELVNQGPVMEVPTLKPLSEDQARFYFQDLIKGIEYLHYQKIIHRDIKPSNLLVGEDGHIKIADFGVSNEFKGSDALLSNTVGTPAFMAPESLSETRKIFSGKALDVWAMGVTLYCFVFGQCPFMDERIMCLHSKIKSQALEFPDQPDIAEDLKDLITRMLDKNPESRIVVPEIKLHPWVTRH

Molecule CNC(=O)c1ccccc1Nc1nsnc(Nc2ccc(N3CCOCC3)cc2)c1=O [Compound 5, N-Methyl-2-({5-[(4-morpholinophenyl)amino]-4-oxo-4H-1,2,6-thiadiazin-3-yl}amino)benzamide] has a melting point of 285 to 287 °C, a ΔTm at 10 µM (CDK2) of -0.1 °C and a ΔTm at 10 µM (TRIB2A) of ~1 °C. For the same molecule, the ΔTm at 10 µM (MAP2K7A) was 1 °C and the ΔTm at 10 µM (CAMKK2B) was -0.5 °C.

In the case of CNC(=O)c1ccccc1Nc1nsnc(Nc2cccc(CS(C)(=O)=O)c2)c1=O [Compound 4, N-Methyl-2-([5-({3-[(methylsulfonyl)methyl]phenyl}amino)-4-oxo-4H-1,2,6-thiadiazin-3-yl]-amino}-benzamide], the melting point is reported as > 300 °C, the ΔTm at 10 µM (CDK2) is reported as 0.2 °C and the ΔTm at 10 µM (TRIB2A) is reported as ~1 °C. For the same molecule, the ΔTm (TRIB2A; 10 µM) was 1,0 °C, the ΔTm at 10 µM (MAP2K7A) was 0.6 °C and the ΔTm at 10 µM (CAMKK2B) was -0.4 °C.

For Cc1ccc(Nc2nsnc(Nc3cccc(C(N)=O)c3)c2=O)cc1O [Compound 1, 3-({5-[(3-Hydroxy-4-methylphenyl)amino]-4-oxo-4H-1,2,6-thiadiazin-3-yl}amino)benzamide], the ΔTm at 10 µM (CDK2) was 0.2 °C, the ΔTm at 10 µM (TRIB2A) was 2.5 °C and the ΔTm at 10 µM (MAP2K7A) was 1.1 °C. For the same molecule, the ΔTm at 10 µM (CAMKK2B) was 0.5 °C.

In the case of Cc1ccc(Nc2nsnc(Nc3ccc(C(N)=O)cc3)c2=O)cc1O [Compound 2, 4-({5-[(3-Hydroxy-4-methylphenyl)amino]-4-oxo-4H-1,2,6-thiadiazin-3-yl}amino)benzamide], the melting point is reported as > 300 °C, the ΔTm at 10 µM (CDK2) is reported as 2.7 °C and the ΔTm at 10 µM (MAP2K7A) is reported as 3.1 °C. It also gave a ΔTm at 10 µM (CAMKK2B) of 2.9 °C.

For Cc1ccc(Nc2nsnc(Nc3ccc4c(c3)CS(=O)(=O)C4)c2=O)cc1O [Compound 3, 3-[(2,2-Dioxido-1,3-dihydrobenzo[c]thiophen-5-yl)amino]-5-[(3-hydroxy-4-methylphenyl)amino]-4H-1,2,6-thiadiazin-4-one], the melting point was > 300 °C, the ΔTm at 10 µM (CDK2) was 1.8 °C and the ΔTm at 10 µM (TRIB2A) was 4.9 °C. It also gave a ΔTm at 10 µM (MAP2K7A) of 3.2 °C and a ΔTm at 10 µM (CAMKK2B) of 2.3 °C.
